# Patent US12583824B2 (Genzyme Corporation, priority 2019, dated 2026)
# Target: T1, CFTR in primary human bronchial epithelial cells from a ΔF508 homozygous CF donor (CF-HBE cells) (Homo sapiens, UniProt P13569, DEL508-508)
# T1 construct: Primary human bronchial epithelial cells from a ΔF508 homozygous CF donor; host or cells: primary human bronchial epithelial cells (CF-HBE), ΔF508 homozygous donor
# Experiment: TECC24 recording analysis of CFTR-mediated transepithelial chloride transport (AUC fold over DMSO)
# Type: cell-based
# Conditions: 3 μM test agent, CF-HBE cells cultured 48 hours at 36.5° C.; ratio of test agent AUC of forskolin-stimulated IEQ divided by vehicle (DMSO) AUC
# Description: Example 31: TECC24 AUC Fold Over DMSO @ 3 μM
# The effects of a test agent on CFTR-mediated transepithelial chloride transport was measured using TECC24 recording analysis. Test agents were solubilized in DMSO. Solubilized test agents were mixed with incubation medium containing DMEM/F12, Ultroser G (2%; Crescent Chemical, catalog #67042), Hyclone Fetal Clone II (2%; GE Healthcare, catalog #SH30066.02), bovine brain extract (0.25%; Lonza, catalog #CC-4098), insulin (2.5 μg/mL), IL-13 (10 ng/mL), hydrocortisone (20 nM), transferrin (2.5 μg/mL), triiodothyronine (500 nM), ethanolamine (250 nM), epinephrine (1.5 μM), phosphoethanolamine (250 nM), and retinoic acid (10 nM). Primary human bronchial epithelial cells from a ΔF508 homozygous CF donor (CF-HBE cells; from University of North Carolina Cystic Fibrosis Tissue Procurement Center), grown on Transwell HTS 24-well cell culture inserts (Costar, catalog #3378), were exposed to test agents or controls dissolved in incubation medium. The CF-HBE cells were cultured at 36.5° C. for 48 hours before TECC24 recordings were performed in the presence or absence of test agent, a positive control or vehicle (DMSO).
# Following incubation, the transwell cell culture inserts containing the test agent or control-treated CF-HBE cells were loaded onto a TECC24 apparatus (TECC v7 or MTECC v2; EP Design) to record the transepithelial voltage (VT) and resistance (TEER) using 4 AgCl electrodes per well configured in current-clamp mode. The apical and basolateral bath solutions both contained (in mM) 140 NaCl, 5 KCl, 2 CaCl2), 1 MgCl2, 10 Hepes, and 10 glucose (adjusted to pH 7.4 with NaOH). To inhibit basal Na+ absorption, the ENaC inhibitor benzamil (10 μM) was added to the bath. Then, the adenylate cyclase activator, forskolin (10 μM), was added to the bath to activate CFTR. The forskolin-stimulated Cl-transport was halted by addition of bumetanide (20 μM), an inhibitor of the basolateral chloride co-transporter NKCC1, to the bath to confirm that the detected signal was chloride dependent. VT and TEER recordings were digitally acquired at routine intervals using TECC or MTECC software (EP Design). VT and TEER were transformed into equivalent transepithelial Cl-current (IEQ), and the Area Under the Curve (AUC) of the IEQ time course between forskolin and bumetanide addition is generated using Excel (Microsoft). Efficacy is expressed as the ratio of the test agent AUC divided by vehicle AUC. EC50s based on AUC are generated using the non-linear regression log(agonist) vs. response function in Prism software (GraphPad) with Hill Slope fixed=1.
# If a test agent increased the AUC of the forskolin-stimulated IEQ relative to vehicle in CF-HBE cells, and this increase was inhibited by bumetanide, then the test agent was considered a CFTR corrector.
# T1 sequence (P13569 with tags, fused parts or gaps DEL508-508): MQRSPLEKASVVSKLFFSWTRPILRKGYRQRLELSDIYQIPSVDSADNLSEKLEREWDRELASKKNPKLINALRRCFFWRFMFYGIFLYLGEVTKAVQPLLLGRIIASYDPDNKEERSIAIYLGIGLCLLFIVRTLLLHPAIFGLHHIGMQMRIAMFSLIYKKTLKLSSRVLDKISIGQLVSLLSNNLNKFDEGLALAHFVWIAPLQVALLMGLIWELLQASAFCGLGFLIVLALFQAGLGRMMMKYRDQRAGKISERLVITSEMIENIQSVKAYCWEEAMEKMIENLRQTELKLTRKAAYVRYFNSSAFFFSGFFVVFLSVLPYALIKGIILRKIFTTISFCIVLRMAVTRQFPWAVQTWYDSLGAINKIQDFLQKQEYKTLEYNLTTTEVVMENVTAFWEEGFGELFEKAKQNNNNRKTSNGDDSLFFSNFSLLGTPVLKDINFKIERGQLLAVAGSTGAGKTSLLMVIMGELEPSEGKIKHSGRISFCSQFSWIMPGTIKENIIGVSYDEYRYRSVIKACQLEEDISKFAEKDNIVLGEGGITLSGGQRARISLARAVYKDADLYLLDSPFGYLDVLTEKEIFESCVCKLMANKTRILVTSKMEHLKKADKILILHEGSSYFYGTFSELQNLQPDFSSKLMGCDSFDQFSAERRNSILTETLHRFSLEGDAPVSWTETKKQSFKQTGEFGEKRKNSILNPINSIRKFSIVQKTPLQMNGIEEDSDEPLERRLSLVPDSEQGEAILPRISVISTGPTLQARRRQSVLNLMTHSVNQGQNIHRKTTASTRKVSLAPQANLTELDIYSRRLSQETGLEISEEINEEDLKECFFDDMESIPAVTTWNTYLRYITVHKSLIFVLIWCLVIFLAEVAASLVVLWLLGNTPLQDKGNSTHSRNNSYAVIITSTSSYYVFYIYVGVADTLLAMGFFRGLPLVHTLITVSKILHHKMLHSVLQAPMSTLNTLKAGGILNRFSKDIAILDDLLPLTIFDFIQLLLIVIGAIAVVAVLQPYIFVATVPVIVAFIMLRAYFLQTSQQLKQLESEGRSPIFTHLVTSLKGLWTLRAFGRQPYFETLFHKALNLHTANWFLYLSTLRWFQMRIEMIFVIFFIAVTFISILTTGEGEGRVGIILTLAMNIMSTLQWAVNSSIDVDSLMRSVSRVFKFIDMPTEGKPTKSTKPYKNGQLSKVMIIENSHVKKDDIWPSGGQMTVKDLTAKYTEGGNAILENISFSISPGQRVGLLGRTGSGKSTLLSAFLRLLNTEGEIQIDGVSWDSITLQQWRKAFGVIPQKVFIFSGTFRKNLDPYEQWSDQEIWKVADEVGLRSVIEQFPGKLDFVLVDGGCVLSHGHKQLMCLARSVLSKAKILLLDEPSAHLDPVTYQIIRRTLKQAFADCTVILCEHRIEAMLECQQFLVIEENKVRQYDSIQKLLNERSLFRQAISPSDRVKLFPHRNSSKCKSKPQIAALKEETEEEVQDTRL
row,TECC24 AUC vs. DMSO (@3 μM),SMILES
1,B (“B” refers to AUC between 2-5),"Cc1cccc(C)c1-c1nc(NS(=O)(=O)c2ccccc2)cnc1-c1cccc([C@@H]2CC[C@H](OC(F)(F)F)C2)c1 (single isomer, unassigned) [Example 6a]"
2,A (“A “refers to AUC > 5),"Cc1cccc(C)c1-c1nc(NS(=O)(=O)c2ccccc2)cnc1-c1cccc([C@@H]2CC[C@@H](OC(F)(F)F)C2)c1 (single isomer, unassigned) [Example 6b]"
3,C (“C” refers to AUC < 2),"Cc1cccc(C)c1-c1nc(NS(=O)(=O)c2cn(C)nc2C)cnc1-c1cccc([C@@H]2CC[C@H](OC(F)(F)F)C2)c1 (single isomer, unassigned) [Example 7a]"
4,B (“B” refers to AUC between 2-5),"Cc1cccc(C)c1-c1nc(NS(=O)(=O)c2cn(C)nc2C)cnc1-c1cccc([C@@H]2CC[C@@H](OC(F)(F)F)C2)c1 (single isomer, unassigned) [Example 7b]"
5,C (“C” refers to AUC < 2),"Cc1nn(C)cc1S(=O)(=O)Nc1cnc(-c2cccc([C@@H]3CC[C@H](OC(F)(F)F)C3)c2)c(-c2ccccc2C(C)C)n1 (single isomer, unassigned) [Example 8a]"
6,B (“B” refers to AUC between 2-5),"Cc1nn(C)cc1S(=O)(=O)Nc1cnc(-c2cccc([C@@H]3CC[C@@H](OC(F)(F)F)C3)c2)c(-c2ccccc2C(C)C)n1 (single isomer, unassigned) [Example 8b]"
7,C (“C” refers to AUC < 2),"CC(C)c1ccccc1-c1nc(NS(=O)(=O)c2ccccc2)cnc1-c1cccc([C@@H]2CC[C@H](OC(F)(F)F)C2)c1 (single isomer, unassigned) [Example 9a]"
8,C (“C” refers to AUC < 2),"CC(C)c1ccccc1-c1nc(NS(=O)(=O)c2ccccc2)cnc1-c1cccc([C@@H]2CC[C@@H](OC(F)(F)F)C2)c1 (single isomer, unassigned) [Example 9b]"
9,C (“C” refers to AUC < 2),"CC(C)n1nccc1-c1nc(NS(=O)(=O)c2ccccc2)cnc1-c1cccc([C@@H]2CCC(OC(F)(F)F)C2)c1 (single isomer, unassigned) [Example 10a]"
10,C (“C” refers to AUC < 2),"CC(C)n1nccc1-c1nc(NS(=O)(=O)c2ccccc2)cnc1-c1cccc([C@@H]2CC[C@@H](OC(F)(F)F)C2)c1 (single isomer, unassigned) [Example 10b]"
11,B (“B” refers to AUC between 2-5),"O=S(=O)(Nc1ncc(-c2cccc([C@H]3CC[C@H](OC(F)(F)F)C3)c2)c(-c2ccccc2C(F)(F)F)n1)c1ccccc1 (single isomer, unassigned) [Example 27a]"
12,A (“A “refers to AUC > 5),"O=S(=O)(Nc1ncc(-c2cccc([C@H]3CC[C@@H](OC(F)(F)F)C3)c2)c(-c2ccccc2C(F)(F)F)n1)c1ccccc1 (single isomer, unassigned) [Example 27b]"
13,A (“A “refers to AUC > 5),"O=S(=O)(Nc1ncc(-c2cccc([C@@H]3CC[C@H](OC(F)(F)F)C3)c2)c(-c2ccccc2C(F)(F)F)n1)c1ccccc1 (single isomer, unassigned) [Example 28a]"
14,A (“A “refers to AUC > 5),"O=S(=O)(Nc1ncc(-c2cccc([C@@H]3CC[C@@H](OC(F)(F)F)C3)c2)c(-c2ccccc2C(F)(F)F)n1)c1ccccc1 (single isomer, unassigned) [Example 28b]"
15,B (“B” refers to AUC between 2-5),"Nc1cccc(S(=O)(=O)Nc2ncc(-c3cccc([C@H]4CC[C@@H](OC(F)(F)F)C4)c3)c(-c3ccccc3C(F)(F)F)n2)c1 (single isomer, unassigned) [Example 29a]"
16,B (“B” refers to AUC between 2-5),"Nc1cccc(S(=O)(=O)Nc2ncc(-c3cccc([C@H]4CC[C@H](OC(F)(F)F)C4)c3)c(-c3ccccc3C(F)(F)F)n2)c1 (single isomer, unassigned) [Example 29b]"
17,B (“B” refers to AUC between 2-5),"Nc1cccc(S(=O)(=O)Nc2ncc(-c3cccc([C@@H]4CC[C@H](OC(F)(F)F)C4)c3)c(-c3ccccc3C(F)(F)F)n2)c1 (single isomer, unassigned) [Example 30a]"
18,A (“A “refers to AUC > 5),"Nc1cccc(S(=O)(=O)Nc2ncc(-c3cccc([C@@H]4CC[C@@H](OC(F)(F)F)C4)c3)c(-c3ccccc3C(F)(F)F)n2)c1 (single isomer, unassigned) [Example 30b]"
19,A (“A “refers to AUC > 5),"Cc1cccc(C)c1-c1nc(NS(=O)(=O)c2ccccc2)cnc1-c1ccc(F)c(OCC(C)(C)C(F)(F)F)c1 [Example 4, N-(6-(2,6-dimethylphenyl)-5-(4-fluoro-3-(3,3,3-trifluoro-2,2-dimethylpropoxy)phenyl)pyrazin-2-yl)benzenesulfonamide]"
20,C (“C” refers to AUC < 2),"Cc1nn(C)cc1S(=O)(=O)Nc1cnc(-c2cccc([C@@H]3CC[C@@H](OC(F)(F)F)C3)c2)c(-c2ccnn2C(C)C)n1 [Example 11, N-(6-(1-isopropyl-1H-pyrazol-5-yl)-5-(3-((1R,3R)-3-(trifluoromethoxy)cyclopentyl)phenyl)pyrazin-2-yl)-1,3-dimethyl-1H-pyrazole-4-sulfonamide]"
21,B (“B” refers to AUC between 2-5),"CC(C)(C)COc1cc(-c2ccc(NS(=O)(=O)c3cccc(Cl)n3)nc2-c2ccc(C(F)(F)F)cc2)ccc1Cl [Example 12, 6-chloro-N-(5-(4-chloro-3-(neopentyloxy)phenyl)-6-(4-(trifluoromethyl)phenyl)pyridin-2-yl)pyridine-2-sulfonamide]"
22,C (“C” refers to AUC < 2),"CC(C)(C)COc1cc(-c2ccc(NS(=O)(=O)c3cccc(N)n3)nc2-c2ccc(C(F)(F)F)cc2)ccc1Cl [Example 13, 6-amino-N-(5-(4-chloro-3-(neopentyloxy)phenyl)-6-(4-(trifluoromethyl)phenyl)pyridin-2-yl)pyridine-2-sulfonamide]"
23,C (“C” refers to AUC < 2),"CC(C)(C)COc1cc(-c2ccc(NS(=O)(=O)c3ccccc3)nc2-c2ccc(C(F)(F)F)cc2)ccc1Cl [Example 14, N-(5-(4-chloro-3-(neopentyloxy)phenyl)-6-(4-(trifluoromethyl)phenyl)pyridin-2-yl)benzenesulfonamide]"

row,SMILES,TECC24 AUC vs. DMSO (@3 μM)
1,"CC(C)c1ccccc1-c1nc(NS(=O)(=O)c2ccccc2)cnc1-c1cccc(OCC(F)(F)C(C)(C)C)c1 [Example 1, N-(5-(3-(2,2-difluoro-3,3-dimethylbutoxy)phenyl)-6-(2-isopropylphenyl)pyrazin-2-yl)benzenesulfonamide]",A (“A “refers to AUC > 5)
2,"Cc1cccc(C)c1-c1nc(NS(=O)(=O)c2ccccc2)cnc1-c1cccc(OCC(F)(F)C(C)(C)C)c1 [Example 2, N-(5-(3-(2,2-difluoro-3,3-dimethylbutoxy)phenyl)-6-(2,6-dimethylphenyl)pyrazin-2-yl)benzenesulfonamide]",A (“A “refers to AUC > 5)
3,"Cc1cccc(C)c1-c1nc(NS(=O)(=O)c2ccccc2)cnc1-c1cccc(OCCC(C)(C)C)c1 [Example 3, N-(5-(3-(3,3-dimethylbutoxy)phenyl)-6-(2,6-dimethylphenyl)pyrazin-2-yl)benzenesulfonamide]",A (“A “refers to AUC > 5)
4,"CC(C)c1ccccc1-c1nc(NS(=O)(=O)c2ccccc2)cnc1-n1ccc(OCC(F)(F)C(C)(C)C)n1 [Example 5, N-(5-(3-(2,2-difluoro-3,3-dimethylbutoxy)-1H-pyrazol-1-yl)-6-(2-isopropylphenyl)pyrazin-2-yl)benzenesulfonamide]",A (“A “refers to AUC > 5)
5,"Cc1cccc(C)c1-c1nc(NS(=O)(=O)c2ccccc2)ccc1-c1cccc(OCCC(C)(C)C)c1 [Example 15, N-(5-(3-(3,3-dimethylbutoxy)phenyl)-6-(2,6-dimethylphenyl)pyridin-2-yl)benzenesulfonamide]",A (“A “refers to AUC > 5)
